Measurements published in ChEMBL document CHEMBL5303573, “Mapping human microbiome drug metabolism by gut bacteria and their genes” (Nature, 2019).

Tests used:
[1] = The drug is tested on Collinsella aerofaciens strain: ATCC25986 for biotransformation. The drug concentrations were measured before and after a 12-h incubation by liquid-chromatography-coupled mass spectrometry (LC–MS); settings: 2 µM
[2] = The drug is tested on Bacteroides coprophilus strain: DSM18228 for biotransformation. The drug concentrations were measured before and after a 12-h incubation by liquid-chromatography-coupled mass spectrometry (LC–MS); settings: 2 µM
[3] = The drug is tested on Odoribacter splanchnicus strain: fecal isolate for biotransformation. The drug concentrations were measured before and after a 12-h incubation by liquid-chromatography-coupled mass spectrometry (LC–MS); settings: 2 µM
[4] = The drug is tested on Bacteroides ovatus strain: ATCC8483 for biotransformation. The drug concentrations were measured before and after a 12-h incubation by liquid-chromatography-coupled mass spectrometry (LC–MS); settings: 2 µM
[5] = The drug is tested on Bacteroides finegoldii strain: DSM17565 for biotransformation. The drug concentrations were measured before and after a 12-h incubation by liquid-chromatography-coupled mass spectrometry (LC–MS); settings: 2 µM
[6] = The drug is tested on Anaerotruncus colihominis strain: DSM17241 for biotransformation. The drug concentrations were measured before and after a 12-h incubation by liquid-chromatography-coupled mass spectrometry (LC–MS); settings: 2 µM
[7] = The drug is tested on Bacteroides uniformis strain: ATCC8492 for biotransformation. The drug concentrations were measured before and after a 12-h incubation by liquid-chromatography-coupled mass spectrometry (LC–MS); settings: 2 µM
[8] = The drug is tested on Alistipes indistinctus strain: DSM22520 for biotransformation. The drug concentrations were measured before and after a 12-h incubation by liquid-chromatography-coupled mass spectrometry (LC–MS); settings: 2 µM
[9] = The drug is tested on Bacteroides caccae strain: ATCC43185 for biotransformation. The drug concentrations were measured before and after a 12-h incubation by liquid-chromatography-coupled mass spectrometry (LC–MS); settings: 2 µM
[10] = The drug is tested on Parabacteroides merdae strain: ATCC43184 for biotransformation. The drug concentrations were measured before and after a 12-h incubation by liquid-chromatography-coupled mass spectrometry (LC–MS); settings: 2 µM
[11] = The drug is tested on Enterococcus faecalis strain: V583 for biotransformation. The drug concentrations were measured before and after a 12-h incubation by liquid-chromatography-coupled mass spectrometry (LC–MS); settings: 2 µM
[12] = The drug is tested on Dorea formicigenerans strain: ATCC27755 for biotransformation. The drug concentrations were measured before and after a 12-h incubation by liquid-chromatography-coupled mass spectrometry (LC–MS); settings: 2 µM
[13] = limosilactobacillus reuteri cf48-3a, 12 h, 2 µM
[14] = The drug is tested on Coprococcus comes strain: ATCC27758 for biotransformation. The drug concentrations were measured before and after a 12-h incubation by liquid-chromatography-coupled mass spectrometry (LC–MS); type: ADME; design: dose 2 uM, timepoint 0 vs 12 hours; settings: 2 µM
[15] = bacteroides thetaiotaomicron, 12 h, 2 µM
[16] = The drug is tested on Ruminococcus torques strain: ATCC27756 for biotransformation. The drug concentrations were measured before and after a 12-h incubation by liquid-chromatography-coupled mass spectrometry (LC–MS); type: ADME; design: dose 2 uM, timepoint 0 vs 12 hours; settings: 2 µM
[17] = The drug is tested on Bifidobacterium ruminantium strain: fecal isolate for biotransformation. The drug concentrations were measured before and after a 12-h incubation by liquid-chromatography-coupled mass spectrometry (LC–MS); settings: 2 µM
[18] = The drug is tested on Clostridium sporogenes strain: ATCC15579 for biotransformation. The drug concentrations were measured before and after a 12-h incubation by liquid-chromatography-coupled mass spectrometry (LC–MS); settings: 2 µM

SMILES | Bacterial Biotransformation [1] | Bacterial Biotransformation [2] | Bacterial Biotransformation [3] | Bacterial Biotransformation [4] | Bacterial Biotransformation [5] | Bacterial Biotransformation [6] | Bacterial Biotransformation [7] | Bacterial Biotransformation [8] | Bacterial Biotransformation [9] | Bacterial Biotransformation [10] | Bacterial Biotransformation [11] | Bacterial Biotransformation [12] | Bacterial Biotransformation [13] | Bacterial Biotransformation [14] | Bacterial Biotransformation [15] | Bacterial Biotransformation [16] | Bacterial Biotransformation [17] | Bacterial Biotransformation [18]
COc1ccc(CCN(C)CCCC(C#N)(c2ccc(OC)c(OC)c2)C(C)C)cc1OC (stereo not given) | Compound NOT metabolized | Compound NOT metabolized | Compound metabolized | Compound metabolized | Compound NOT metabolized | Compound NOT metabolized | Compound metabolized | Compound NOT metabolized | Compound NOT metabolized | Compound NOT metabolized | Compound NOT metabolized | Compound NOT metabolized | Compound NOT metabolized | Compound NOT metabolized | Compound metabolized | Compound NOT metabolized | Compound NOT metabolized | 
COc1cc2nc(N(C)CCCNC(=O)C3CCCO3)nc(N)c2cc1OC (stereo not given) [ALFUZOSIN] | Compound NOT metabolized | Compound NOT metabolized | Compound NOT metabolized | Compound NOT metabolized | Compound NOT metabolized | Compound NOT metabolized |  |  | Compound NOT metabolized | Compound NOT metabolized | Compound NOT metabolized | Compound NOT metabolized | Compound NOT metabolized | Compound NOT metabolized |  | Compound NOT metabolized | Compound NOT metabolized | Compound NOT metabolized
O=C1CC2(CCCC2)CC(=O)N1CCCCN1CCN(c2ncccn2)CC1 [BUSPIRONE] | Compound NOT metabolized | Compound NOT metabolized |  | Compound NOT metabolized | Compound NOT metabolized | Compound NOT metabolized | Compound NOT metabolized |  | Compound NOT metabolized | Compound NOT metabolized | Compound NOT metabolized | Compound NOT metabolized | Compound NOT metabolized | Compound NOT metabolized | Compound NOT metabolized | Compound NOT metabolized |  | Compound NOT metabolized
Br.CN1CCC[C@@H]1Cc1c[nH]c2ccc(CCS(=O)(=O)c3ccccc3)cc12 [ELETRIPTAN HYDROBROMIDE] | Compound NOT metabolized | Compound NOT metabolized | Compound NOT metabolized | Compound NOT metabolized | Compound NOT metabolized | Compound NOT metabolized | Compound NOT metabolized |  | Compound NOT metabolized | Compound NOT metabolized | Compound NOT metabolized | Compound NOT metabolized | Compound NOT metabolized | Compound NOT metabolized | Compound NOT metabolized | Compound NOT metabolized | Compound NOT metabolized | Compound NOT metabolized
COC1=CC(=O)C[C@@H](C)[C@]12Oc1c(Cl)c(OC)cc(OC)c1C2=O [GRISEOFULVIN] | Compound NOT metabolized |  |  |  | Compound NOT metabolized | Compound NOT metabolized | Compound metabolized | Compound NOT metabolized | Compound NOT metabolized | Compound metabolized | Compound NOT metabolized | Compound NOT metabolized | Compound NOT metabolized | Compound NOT metabolized |  | Compound NOT metabolized | Compound NOT metabolized | 
CC(C)(C)N.CCC[C@H](N[C@@H](C)C(=O)N1[C@H](C(=O)O)C[C@@H]2CCCC[C@@H]21)C(=O)OCC [PERINDOPRIL ERBUMINE] | Compound NOT metabolized | Compound NOT metabolized | Compound NOT metabolized | Compound NOT metabolized | Compound NOT metabolized | Compound NOT metabolized | Compound NOT metabolized | Compound NOT metabolized | Compound NOT metabolized |  | Compound NOT metabolized | Compound NOT metabolized | Compound NOT metabolized | Compound NOT metabolized |  | Compound NOT metabolized | Compound NOT metabolized | Compound NOT metabolized
O=C1N=C([O-])NC1(c1ccccc1)c1ccccc1.[Na+] [PHENYTOIN SODIUM] | Compound metabolized | Compound metabolized | Compound metabolized | Compound metabolized | Compound NOT metabolized | Compound NOT metabolized | Compound metabolized | Compound NOT metabolized |  | Compound metabolized | Compound NOT metabolized | Compound NOT metabolized | Compound NOT metabolized | Compound NOT metabolized |  | Compound NOT metabolized | Compound metabolized | Compound metabolized
CN(CCOc1ccc(CC2SC(=O)NC2=O)cc1)c1ccccn1.O=C(O)/C=C\C(=O)O (stereo not given) [ROSIGLITAZONE MALEATE] | Compound NOT metabolized | Compound NOT metabolized | Compound NOT metabolized | Compound NOT metabolized | Compound NOT metabolized | Compound NOT metabolized | Compound NOT metabolized |  | Compound NOT metabolized | Compound NOT metabolized | Compound NOT metabolized | Compound NOT metabolized | Compound NOT metabolized | Compound NOT metabolized | Compound NOT metabolized | Compound NOT metabolized |  | Compound NOT metabolized
CCCCCNC(=N)N/N=C/c1c[nH]c2ccc(OC)cc12.O=C(O)/C=C\C(=O)O [TEGASEROD MALEATE] | Compound NOT metabolized | Compound NOT metabolized | Compound NOT metabolized | Compound NOT metabolized | Compound NOT metabolized | Compound NOT metabolized | Compound NOT metabolized | Compound NOT metabolized | Compound NOT metabolized | Compound NOT metabolized | Compound NOT metabolized | Compound NOT metabolized | Compound NOT metabolized | Compound NOT metabolized | Compound NOT metabolized | Compound NOT metabolized |  | Compound NOT metabolized
CCN(C(C)=O)c1cccc(-c2ccnc3c(C#N)cnn23)c1 [ZALEPLON] | Compound NOT metabolized | Compound NOT metabolized | Compound NOT metabolized | Compound NOT metabolized |  | Compound NOT metabolized | Compound metabolized | Compound NOT metabolized |  |  | Compound NOT metabolized | Compound NOT metabolized |  | Compound NOT metabolized |  | Compound NOT metabolized | Compound NOT metabolized | Compound NOT metabolized
